# Laboratory results taken from patent publication US9376376B2, “Substitute diphenylamine compounds use thereof as antitumor agents” (SINOCHEM CORPORATION, priority 2012, dated 2016).
# How the values were obtained:
# leukemia MOLT-4 = assay: In vitro cell inhibition assay, CCK-8 method, MOLT-4; type: cell-based, human; details: leukemia MOLT-4, CCK-8 method; read-out: The half maximal inhibitory concentration (IC50)
# Description: (§1) After the cell culture flasks gently shaking, culture fluid was discarded in clean bench. […] Cells were collected and transferred to centrifuge tube. For the non-adherent cells HL-60, CCRF-CEM and MOLT-4, cell flasks were picked up from incubator and then transferred to the centrifuge tubes directly. After cells were collected using centrifuge at 1000 rpm/min for 5 min, the fluid was discarded. Then cells were washed for one time by PBS, discard fluid. Then add some medium, count cells under inverted microscope using blood cell counting plate, according the counting number to making the density of adherent cell was 1×10^5 cells/mL, the non-adherent cell was 2×10^5 cells/mL (the volumes of HL-60, CCRF-CEM, MOLT-4 are smaller than non-adherent cells, these cells added to each well was much more higher). Add 50 μL aliquots to each well of 96-well plates (the density of adherent cells was 5000 cells/well, non-adherent cells was 10000 cells/well). Blank control, Negative control, blank control with compounds and positive control wells were grouped, and three replicate wells were used for each data point in the experiments. Then the cells were cultured in 5% incubator for overnight at 37° C., Then the different concentration compounds were added to each well. […] The absorbance (A) of each well was read at 450 nm using a plate reader.
# leukemia CCRF-CEM = assay: In vitro cell inhibition assay, CCK-8 method, CCRF-CEM; type: cell-based, human; details: read-out: The half maximal inhibitory concentration (IC50)
# Description: as §1
# glioma U251 = assay: In vitro cell inhibition assay, CCK-8 method, U251; type: cell-based, human; details: glioma U251, CCK-8 method; read-out: The half maximal inhibitory concentration (IC50)
# Description: as §1
# [1] = tested on: nasopharyngeal carcinoma CNE; assay: In vitro cell inhibition assay, CCK-8 method, CNE; type: cell-based, human; details: read-out: The half maximal inhibitory concentration (IC50)
# Description: as §1
# osteosarcoma MG-63 = assay: In vitro cell inhibition assay, CCK-8 method, MG-63; type: cell-based, human; details: osteosarcoma MG-63, CCK-8 method; read-out: The half maximal inhibitory concentration (IC50)
# Description: as §1
# colon cancer COLO-205 = assay: In vitro cell inhibition assay, CCK-8 method, COLO-205; details: read-out: The half maximal inhibitory concentration (IC50); Colorectal Cancer COLO-205, CCK-8 method
# prostate cancer DU-145 = assay: In vitro cell inhibition assay, CCK-8 method, DU-145; type: cell-based, human; details: Prostate cancer DU-145, CCK-8 method; read-out: The half maximal inhibitory concentration (IC50)
# Description: as §1
# [2] = tested on: non-small cell lung cancer NCI-H358; assay: In vitro cell inhibition assay, CCK-8 method, NCI-H358; type: cell-based, human; details: Non-small-cell carcinoma NCI-H358, CCK-8 method; read-out: The half maximal inhibitory concentration (IC50)
# Description: as §1
# leukemia HL-60 cells [3] = assay: In vitro cell inhibition assay (MTT method), HL-60; type: cell-based, human; details: 48 h
# Description: (§2) The human cancer cell lines used for this assay were lung cancer A549 and leukemia HL-60.
# (§3) The A549 or HL-60 cells were picked up from cell incubator, after washed for twice using PBS, cells were digested by 0.25% trypsin, and then add medium to terminate the digestion. After cells were collected using centrifuge and re-suspended, count cells under inverted microscope and add medium to make a density was 5×10^4 cells/mL. After 100 μL aliquots were added to each well of 96-well microtiter plates, cells were cultured in 5% incubator for overnight at 37° C., then the different concentration compounds were added to each well. After incubation for 48 h, MTT solution was added to each well and plates were then incubated for 4 h. The MTT tetrazolium was reduced to formazan by living cells. Then the formazan crystals were dissolved though adding DMSO to each well. The absorbance was read at 570 nm with a microplate reader.
# prostate cancer PC-3 = assay: In vitro cell inhibition assay, CCK-8 method, PC-3; type: cell-based, human; details: Prostate cancer PC-3, CCK-8 method; read-out: The half maximal inhibitory concentration (IC50)
# Description: as §1
# cervical cancer Hela = assay: In vitro cell inhibition assay, CCK-8 method, Hela; type: cell-based, human; details: read-out: The half maximal inhibitory concentration (IC50)
# Description: as §1
# breast cancer MDA-MB-231 = assay: In vitro cell inhibition assay, CCK-8 method, MDA-MB-231; type: cell-based, human; details: breast cancer MDA-MB-231, CCK-8 method; read-out: The half maximal inhibitory concentration (IC50)
# Description: as §1
# colon cancer HT-29 = assay: In vitro cell inhibition assay, CCK-8 method, HT-29; type: cell-based, human; details: Colorectal Cancer HT-29, CCK-8 method; read-out: The half maximal inhibitory concentration (IC50)
# Description: as §1
# pancreatic cancer BXPC-3 = assay: In vitro cell inhibition assay, CCK-8 method, BXPC-3; type: cell-based, human; details: pancreatic cancer BXPC-3, CCK-8 method; read-out: The half maximal inhibitory concentration (IC50)
# Description: as §1
# [4] = tested on: non-small cell lung cancer A549 cells; assay: In vitro cell inhibition assay, CCK-8 method, A549; type: cell-based, human; details: for Proliferation inhibitory effect of the compounds on A549 cells (% of Control): 48 h incubation
# Description: (§4) After the cell culture flasks gently shaking, culture fluid was discarded in clean bench. […] Cells were collected and transferred to centrifuge tube. For the non-adherent cells HL-60, CCRF-CEM and MOLT-4, cell flasks were picked up from incubator and then transferred to the centrifuge tubes directly. After cells were collected using centrifuge at 1000 rpm/min for 5 min, the fluid was discarded. Then cells were washed for one time by PBS, discard fluid. Then add some medium, count cells under inverted microscope using blood cell counting plate, according the counting number to making the density of adherent cell was 1×10^5 cells/mL, the non-adherent cell was 2×10^5 cells/mL (the volumes of HL-60, CCRF-CEM, MOLT-4 are smaller than non-adherent cells, these cells added to each well was much more higher). Add 50 μL aliquots to each well of 96-well plates (the density of adherent cells was 5000 cells/well, non-adherent cells was 10000 cells/well). Blank control, Negative control, blank control with compounds and positive control wells were grouped, and three replicate wells were used for each data point in the experiments. Then the cells were cultured in 5% incubator for overnight at 37° C., Then the different concentration compounds were added to each well. After incubation for 48 h, according to the manufacturer's instructions, CCK-8 reagent (10 μl) was added and incubation was continued for a further 2-4 h. The absorbance (A) of each well was read at 450 nm using a plate reader.
# lung cancer A549 cell = assay: In vitro cell inhibition assay (MTT method), A549; type: cell-based, human; details: 48 h incubation
# Description: as §2, §3
# leukemia HL-60 cells [5] = assay: In vitro cell inhibition assay, CCK-8 method, HL-60; type: cell-based, human; details: for Proliferation inhibitory effect of the compounds on HL-60 cells (% of Control): CCK-8 method
# Description: as §4
# [6] = tested on: intracranial malignant melanoma A375; assay: In vitro cell inhibition assay, CCK-8 method, A375; type: cell-based, human; details: melanoma A375, CCK-8 method; read-out: The half maximal inhibitory concentration (IC50)
# Description: as §1
# hepatocarcinoma SK-HEP-1 = assay: In vitro cell inhibition assay, CCK-8 method, SK-HEP-1; type: cell-based, human; details: hepatocarcinoma SK-HEP-1, CCK-8 method; read-out: The half maximal inhibitory concentration (IC50)
# Description: as §1
# bladder cancer T24 = assay: In vitro cell inhibition assay, CCK-8 method, T24; type: cell-based, human; details: bladder cancer T24, CCK-8 method; read-out: The half maximal inhibitory concentration (IC50)
# Description: as §1
# [7] = tested on: non-small cell lung cancer NCI-H1650; assay: In vitro cell inhibition assay, CCK-8 method, NCI-H1650; type: cell-based, human; details: Non-small-cell carcinoma NCI-H1650, CCK-8 method; read-out: The half maximal inhibitory concentration (IC50)
# Description: as §1
compound,measurement,setting,value
N#Cc1c(Cl)c(Cl)c(Nc2c(Cl)cc(Cl)cc2Cl)c(C#N)c1Cl [Compound 6-93],IC50,leukemia MOLT-4,167 nM
same,IC50,leukemia CCRF-CEM,< 10 nM
same,IC50,glioma U251,1620 nM
same,IC50,[1],6080 nM
same,IC50,osteosarcoma MG-63,196 nM
same,IC50,colon cancer COLO-205,125 nM
same,IC50,prostate cancer DU-145,646 nM
same,IC50,[2],443 nM
same,Proliferation inhibitory effect of the compounds on HL-60 cells (% of Control),leukemia HL-60 cells [3]; concentration 0.01 μM,0 % of Control
same,Proliferation inhibitory effect of the compounds on HL-60 cells (% of Control),leukemia HL-60 cells [3]; concentration 0.1 μM,51.8 % of Control
same,Proliferation inhibitory effect of the compounds on HL-60 cells (% of Control),leukemia HL-60 cells [3]; concentration 1 μM,70.7 % of Control
same,Proliferation inhibitory effect of the compounds on HL-60 cells (% of Control),leukemia HL-60 cells [3]; concentration 10 μM,72.3 % of Control
same,Proliferation inhibitory effect of the compounds on HL-60 cells (% of Control),leukemia HL-60 cells [3]; concentration 100 μM,74.8 % of Control
same,IC50,prostate cancer PC-3,1360 nM
same,IC50,cervical cancer Hela,1510 nM
same,IC50,breast cancer MDA-MB-231,175 nM
same,IC50,colon cancer HT-29,224 nM
same,IC50,pancreatic cancer BXPC-3,331 nM
same,Proliferation inhibitory effect of the compounds on A549 cells (% of Control),"[4]; CCK-8, 0.01 μM",14.77 % of Control
same,Proliferation inhibitory effect of the compounds on A549 cells (% of Control),"[4]; CCK-8, 0.1 μM",19.35 % of Control
same,Proliferation inhibitory effect of the compounds on A549 cells (% of Control),"[4]; CCK-8, 1 μM",70.04 % of Control
same,Proliferation inhibitory effect of the compounds on A549 cells (% of Control),"[4]; CCK-8, 10 μM",87.64 % of Control
same,Proliferation inhibitory effect of the compounds on A549 cells (% of Control),"[4]; CCK-8, 100 μM",98.18 % of Control
same,IC50,"[4]; Non-small-cell carcinoma A549, CCK-8 method, read-out: The half maximal inhibitory concentration (IC50)",715 nM
same,Proliferation inhibitory effect of the compounds on A549 cell (% of Control),lung cancer A549 cell; 0.01 μM,12.1 % of Control
same,Proliferation inhibitory effect of the compounds on A549 cell (% of Control),lung cancer A549 cell; 0.1 μM,39.4 % of Control
same,Proliferation inhibitory effect of the compounds on A549 cell (% of Control),lung cancer A549 cell; 1 μM,74.8 % of Control
same,Proliferation inhibitory effect of the compounds on A549 cell (% of Control),lung cancer A549 cell; 10 μM,80.3 % of Control
same,Proliferation inhibitory effect of the compounds on A549 cell (% of Control),lung cancer A549 cell; 100 μM,98.2 % of Control
same,Proliferation inhibitory effect of the compounds on HL-60 cells (% of Control),leukemia HL-60 cells [5]; concentration 0.01 μM,30.19 % of Control
same,Proliferation inhibitory effect of the compounds on HL-60 cells (% of Control),leukemia HL-60 cells [5]; concentration 0.1 μM,44.96 % of Control
same,Proliferation inhibitory effect of the compounds on HL-60 cells (% of Control),leukemia HL-60 cells [5]; concentration 1 μM,82.05 % of Control
same,Proliferation inhibitory effect of the compounds on HL-60 cells (% of Control),leukemia HL-60 cells [5]; concentration 10 μM,87.80 % of Control
same,Proliferation inhibitory effect of the compounds on HL-60 cells (% of Control),leukemia HL-60 cells [5]; concentration 100 μM,93.71 % of Control
same,IC50,"leukemia HL-60 cells [5]; leukemia HL-60, CCK-8 method, read-out: The half maximal inhibitory concentration (IC50)",85 nM
same,IC50,[6],160 nM
same,IC50,hepatocarcinoma SK-HEP-1,489 nM
same,IC50,bladder cancer T24,603 nM
same,IC50,[7],1370 nM
